According to PMC7430754, “Cloning and functional complementation of ten Schistosoma mansoni phosphodiesterases expressed in the mammalian host stages” (PLoS Neglected Tropical Diseases, 2020):

Tests used:
TbrPDEB2 = biological target: T1, TbrPDEB2 (Trypanosoma brucei, UniProt Q38F42); test: alamar blue growth assay of T. brucei TbrPDEB1/B2 double knockout dependent on this PDE; format: cell-based; conditions: growth read-out of whole trypanosomes, not enzyme assay; HMI-11 medium, 37 °C, 48 h plus 24 h resazurin
T1 construct: gene Tb09.160.3630; full length, C-terminal 6Myc tag, expressed from rRNA locus in T. b. brucei 2T1 lacking endogenous TbrPDEB1/B2
Description: alamar blue growth assay of T. brucei TbrPDEB1/B2 double knockout dependent on this PDE on TbrPDEB2

[1] = system: T2, T. b. brucei 2T1 (parental wild type); test: microbe, parasite or virus in culture; parameters: species or system T. b. brucei 2T1 bloodstream form; Alamar blue (resazurin) viability of parental bloodstream-form trypanosomes, fluorescence; conditions: Trypanosoma brucei, 72 h, read-out: 2T1-WT EC50 (μM)
T2 construct: 2T1, bloodstream form
Description: Drug sensitivities were assessed using a modified version of the alamar blue assay described previously. Briefly, test drugs were serially diluted in 100 μl of complete HMI‐11 media across two rows of a white 96-well plate (Greiner, Stonehouse, UK). Bloodstream‐form trypanosome cultures were diluted in HMI‐11, and 100 μl was added to all wells to give a final cell density of 1 × 10^5 trypanosomes/ml. Plates were incubated for 48 h at 37°C/5% CO2, prior to the addition of 20 μl of 5 mM resazurin sodium salt (Sigma‐Aldrich, Gillingham, UK) in PBS, pH7.4. Plates were incubated for a further 24 h in the same conditions, before fluorescence was measured using a FLUOstar Optima fluorimeter (BMG Labtech, Aylesbury, UK) with excitation and emission filters of 544 nm and 590 nm, respectively. […] All EC50 values were determined at least three times independently.

TbrPDEB1 = biological target: T3, TbrPDEB1 (Trypanosoma brucei, UniProt Q8WQX9); test: alamar blue growth assay of T. brucei TbrPDEB1/B2 double knockout dependent on this PDE; format: cell-based; conditions: growth read-out of whole trypanosomes, not enzyme assay; HMI-11 medium, 37 °C, 48 h plus 24 h resazurin
T3 construct: gene PDEB1; full length, C-terminal 6Myc tag, expressed from rRNA locus in T. b. brucei 2T1 lacking endogenous TbrPDEB1/B2
Description: alamar blue growth assay of T. brucei TbrPDEB1/B2 double knockout dependent on this PDE on TbrPDEB1

SmPDE4A = biological target: T4, SmPDE4A (Schistosoma mansoni, UniProt A0ACM8RGL1); test: as above; format: cell-based, Trypanosoma brucei; conditions: growth read-out of whole trypanosomes, not enzyme assay; HMI-11 medium, 37 °C, 48 h plus 24 h resazurin
T4 construct: gene PDE4A; full length 699 aa, codon-optimised, N-terminal first 70 aa of TbrPDEB1 as targeting tag, C-terminal GFP; expressed in T. b. brucei 2T1 lacking TbrPDEB1/B2
Description: alamar blue growth assay of T. brucei TbrPDEB1/B2 double knockout dependent on this PDE on SmPDE4A

T1 sequence (Q38F42 entry or part of it): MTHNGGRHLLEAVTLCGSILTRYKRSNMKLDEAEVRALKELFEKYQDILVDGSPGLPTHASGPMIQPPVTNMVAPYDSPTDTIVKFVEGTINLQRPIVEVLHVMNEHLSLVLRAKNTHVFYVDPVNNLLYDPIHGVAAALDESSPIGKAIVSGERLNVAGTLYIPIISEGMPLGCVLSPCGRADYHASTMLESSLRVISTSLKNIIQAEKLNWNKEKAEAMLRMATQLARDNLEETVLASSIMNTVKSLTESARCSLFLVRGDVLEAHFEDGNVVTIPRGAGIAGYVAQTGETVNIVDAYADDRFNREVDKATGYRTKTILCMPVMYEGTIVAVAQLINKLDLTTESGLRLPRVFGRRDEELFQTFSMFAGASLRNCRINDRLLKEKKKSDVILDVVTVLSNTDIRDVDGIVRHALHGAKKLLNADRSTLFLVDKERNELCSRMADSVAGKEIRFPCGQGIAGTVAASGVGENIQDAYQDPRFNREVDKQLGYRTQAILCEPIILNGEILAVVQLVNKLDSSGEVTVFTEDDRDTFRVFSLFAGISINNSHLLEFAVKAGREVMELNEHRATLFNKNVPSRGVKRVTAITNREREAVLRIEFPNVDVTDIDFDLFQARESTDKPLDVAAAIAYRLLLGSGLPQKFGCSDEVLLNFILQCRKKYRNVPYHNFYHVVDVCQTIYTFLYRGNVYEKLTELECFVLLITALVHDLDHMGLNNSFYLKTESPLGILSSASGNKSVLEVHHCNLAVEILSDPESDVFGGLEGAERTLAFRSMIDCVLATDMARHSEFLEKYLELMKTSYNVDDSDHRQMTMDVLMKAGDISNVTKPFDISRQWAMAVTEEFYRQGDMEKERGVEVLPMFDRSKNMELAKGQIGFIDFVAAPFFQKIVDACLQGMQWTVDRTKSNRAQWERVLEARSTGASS
T3 sequence (Q8WQX9 entry or part of it): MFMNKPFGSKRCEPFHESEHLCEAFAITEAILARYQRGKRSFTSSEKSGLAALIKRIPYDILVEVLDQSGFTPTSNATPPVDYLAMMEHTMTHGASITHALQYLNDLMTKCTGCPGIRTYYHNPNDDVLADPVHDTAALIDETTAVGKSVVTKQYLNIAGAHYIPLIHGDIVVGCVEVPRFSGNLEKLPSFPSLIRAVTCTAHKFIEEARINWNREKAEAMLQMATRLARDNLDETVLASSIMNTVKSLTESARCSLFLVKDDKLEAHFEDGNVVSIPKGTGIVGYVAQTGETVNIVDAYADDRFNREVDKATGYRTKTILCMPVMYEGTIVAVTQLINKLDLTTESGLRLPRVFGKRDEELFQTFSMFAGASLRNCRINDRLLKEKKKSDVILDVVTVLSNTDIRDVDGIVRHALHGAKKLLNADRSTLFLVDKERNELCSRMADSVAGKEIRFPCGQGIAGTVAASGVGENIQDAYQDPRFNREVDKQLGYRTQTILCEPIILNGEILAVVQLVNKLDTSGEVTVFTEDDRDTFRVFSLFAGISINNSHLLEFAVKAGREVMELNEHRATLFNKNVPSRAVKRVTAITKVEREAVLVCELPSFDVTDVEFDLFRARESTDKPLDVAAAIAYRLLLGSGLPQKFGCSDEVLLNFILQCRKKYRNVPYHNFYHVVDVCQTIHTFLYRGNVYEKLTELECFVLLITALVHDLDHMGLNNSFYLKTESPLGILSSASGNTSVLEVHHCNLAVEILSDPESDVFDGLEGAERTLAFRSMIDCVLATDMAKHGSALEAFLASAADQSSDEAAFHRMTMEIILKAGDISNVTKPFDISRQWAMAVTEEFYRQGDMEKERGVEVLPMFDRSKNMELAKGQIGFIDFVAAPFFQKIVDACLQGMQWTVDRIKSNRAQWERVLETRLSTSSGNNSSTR

COc1ccc(C2=NN(C3CCN(C(=O)CN4C(=O)CC(C)(C)CC4=O)CC3)C(=O)[C@@H]3CC=CC[C@H]23)cc1OC [NPD-226]
dKO+TbrPDEB2 EC50 (TbrPDEB2): 82 ± 9 nM | EC50 [1]: 0.16 ± 0.01 µM | dKO+TbrPDEB1 EC50 (TbrPDEB1): 290 ± 110 nM | dKO+SmPDE4A / EC50 (SmPDE4A): 40 ± 4 nM

N=C(N)c1ccc(OCCCCCOc2ccc(C(=N)N)cc2)cc1 [Pentamidine]
EC50 [1]: 0.0012 ± 0.0002 µM

COc1ccc(C2=NN(C3CCCCCC3)C(=O)[C@@H]3CC=CC[C@H]23)cc1OCCCCOc1ccc(-c2nn[nH]n2)cc1 [NPD-001]
dKO+TbrPDEB2 EC50 (TbrPDEB2): 84 ± 18 nM | EC50 [1]: 0.1 ± 0.015 µM | dKO+SmPDE4A / EC50 (SmPDE4A): 24 ± 3 nM

COc1cc2c(cc1OC)-c1cc(=Nc3c(C)cc(C)cc3C)n(C)c(=O)n1CC2 [Trequisin]
EC50 [1]: 33.2 ± 0.9 µM
